Measurements reported in patent US20230180754A1, “HETEROCYCLIC COMPOUNDS FOR THE CONTROL OF INVERTEBRATE PESTS” (priority 2020, published 2023).

Key:
Format in all cases: in vivo
[1] = tested on: tobacco budworm (Heliothis virescens); assay: Tobacco budworm (Heliothis virescens), microtiter plate insect diet test; conditions: 120 h, egg and larval mortality after 5 days, read-out: mortality in comparison with untreated controls
Experimental: For evaluating control of tobacco budworm (Heliothis virescens) the test unit consisted of 96-well-microtiter plates containing an insect diet and 15-25 H. virescens eggs. The compounds were formulated using a solution containing 75% v/v water and 25% v/v DMSO. Different concentrations of formulated compounds were sprayed onto the insect diet at 10 μl, using a custom-built micro atomizer, at two replications.
After application, microtiter plates were incubated at about 28±1° C. and about 80±5% relative humidity for 5 days. Egg and larval mortality was then visually assessed.

[2] = tested on: green peach aphid (Myzus persicae); assay: Green peach aphid (Myzus persicae), systemic artificial diet/membrane test; conditions: 72 h, aphid mortality after 3 days, read-out: mortality in comparison with untreated controls
Excerpt: For evaluating control of green peach aphid (Myzus persicae) through systemic means the test unit consisted of 96-well-microtiter plates containing liquid artificial diet under an artificial membrane.
The compounds were formulated using a solution containing 75% v/v water and 25% v/v DMSO. Different concentrations of formulated compounds were pipetted into the aphid diet, using a custom-built pipette, at two replications.
After application, 5-8 adult aphids were placed on the artificial membrane inside the microtiter plate wells. The aphids were then allowed to suck on the treated aphid diet and incubated at about 23 ±1° C. and about 50 ±5% relative humidity for 3 days. Aphid mortality and fecundity was then visually assessed.

[3] = tested on: boll weevil (Anthonomus grandis); assay: Boll weevil (Anthonomus grandis), microtiter plate insect diet test; conditions: 120 h, egg and larval mortality after 5 days, read-out: mortality in comparison with untreated controls
Experimental: For evaluating control of boll weevil (Anthonomus grandis) the test unit consisted of 96-well-microtiter plates containing an insect diet and 5-10 A. grandis eggs. The compounds were formulated using a solution containing 75% v/v water and 25% v/v DMSO. Different concentrations of formulated compounds were sprayed onto the insect diet at 5 μl, using a custom-built micro atomizer, at two replications.
After application, microtiter plates were incubated at about 25±1° C. and about 75±5% relative humidity for 5 days. Egg and larval mortality was then visually assessed.

[4] = tested on: yellow fever mosquito (Aedes aegypti); assay: whole plant or invertebrate; conditions: 48 h, larval mortality after 2 days, read-out: mortality in comparison with untreated controls
Experimental: For evaluating control of yellow fever mosquito (Aedes aegypti) the test unit consisted of 96-well-microtiter plates containing 200 μl of tap water per well and 5-15 freshly hatched A. aegypti larvae.
The active compounds were formulated using a solution containing 75% (v/v) water and 25% (v/v) DMSO. Different concentrations of formulated compounds or mixtures were sprayed onto the insect diet at 2.5 μl, using a custom-built micro atomizer, at two replications.
After application, microtiter plates were incubated at 28±1° C., 80±5% RH for 2 days. Larval mortality was then visually assessed.

[5] = tested on: diamond back moth (Plutella xylostella); assay: Diamond back moth (Plutella xylostella), cabbage leaf disc dip test; conditions: foliar, 72 hours after treatment, 3rd instar larvae, read-out: mortality in comparison with untreated controls
Experimental: The active compound was dissolved at the desired concentration in a mixture of 1:1 (vol:vol) distilled water:acetone. Surfactant (Kinetic) was added at a rate of 0.01% (vol/vol). The test solution was prepared at the day of use. Cabbage leaf discs (60 mm in diameter) were dipped in test solution and air-dried. Treated leaves were placed in petri dishes lined with moistened filter paper and inoculated with ten 3rd instar larvae. Mortality was recorded 72 hours after treatment. Feeding damages were also recorded using a scale of 0-100%.

[6] = tested on: orchid thrips (Dichromothrips corbetti); assay: Orchid thrips (Dichromothrips corbetti), floral-immersion technique; conditions: 72 hours after treatment, adult thrips, read-out: mortality in comparison with untreated controls
Experimental: Dichromothrips corbetti adults used for bioassay were obtained from a colony maintained continuously under laboratory conditions. For testing purposes, the test compound was diluted in a 1:1 mixture of acetone:water (vol:vol), plus Kinetic at a rate of 0.01% v/v.
Thrips potency of each compound was evaluated by using a floral-immersion technique. Each orchid petal was dipped into treatment solution and allowed to dry in Petri dishes. Treated petals were placed into individual re-sealable plastic along with about 20 adult thrips. All test arenas were held under dark condition and a temperature of about 28° C. for duration of the assay. The percent mortality was recorded 72 hours after treatment.

[7] = tested on: southern armyworm (Spodoptera eridania), 2nd instar larvae; assay: Southern armyworm (Spodoptera eridania), 2nd instar larvae, sprayed lima bean plants; conditions: 96 h, 4 days after treatment, read-out: mortality in comparison with untreated controls
Excerpt: The active compounds were formulated by a Tecan liquid handler in 100% cyclohexanone as a 10′000 ppm solution supplied in tubes. The 10′000 ppm solution was serially diluted in 100% cyclohexanone to make interim solutions. These served as stock solutions for which final dilutions were made by the Tecan in 50% acetone:50% water (v/v) into 10 or 20m1 glass vials. A nonionic surfactant (Kinetic®) was included in the solution at a volume of 0.01% (v/v). The vials were then inserted into an automated electrostatic sprayer equipped with an atomizing nozzle for application to plants/insects. Lima bean plants (variety Sieva) were grown 2 plants to a pot and selected for treatment at the 1st true leaf stage. Test solutions were sprayed onto the foliage by an automated electrostatic plant sprayer equipped with an atomizing spray nozzle. The plants were dried in the sprayer fume hood and then removed from the sprayer. Each pot was placed into perforated plastic bags with a zip closure. Ten to 11 armyworm larvae were placed into the bag and the bags zipped closed. Test plants were maintained in a growth room at about 25° C. and about 20-40% relative humidity for 4 days, avoiding direct exposure to fluorescent light (14:10 light:dark photo-period) to prevent trapping of heat inside the bags. Mortality and reduced feeding were assessed 4 days after treatment, compared to untreated control plants.

[8] = tested on: rice green leafhopper (Nephotettix virescens); assay: Rice green leafhopper (Nephotettix virescens), sprayed rice seedlings; conditions: after 72 hours, adults, read-out: mortality in comparison with untreated controls
Experimental: Four to five-week old rice seedlings with cut upper leaf portion were cleaned and washed 24 hours before spraying. The active compounds were formulated in 1:1 acetone:water (vol:vol), and 0.01% vol/vol surfactant (Kinetic) was added. Potted rice seedlings were sprayed with 5-6 ml test solution, air dried, covered with Mylar cages and inoculated with 10 adults. Treated rice plants were kept at about 28-29° C. and relative humidity of about 50-60%. Percent mortality was recorded after 72 hours.

CC(Nc1noc2c(C(F)(F)F)cc(C(F)(F)F)cc12)c1ncnn1-c1ncccn1 (stereo not drawn) [I-1, N-[1-(2-pyrimidin-2-yl-1,2,4-triazol-3-yl)ethyl]-5,7-bis(trifluoromethyl)-1,2-benzoxazol-3-amine]
≥ 50%: mortality at 2500 ppm [1] | mortality at 2500 ppm [2] | mortality at 2500 ppm [3] | mortality at 2500 ppm [4]

FC(F)(F)c1cc(C(F)(F)F)c2onc(NCc3ncnn3-c3ncccn3)c2c1 [I-2, N-[(2-pyrimidin-2-yl-1,2,4-triazol-3-yl)methyl]-5,7-bis(trifluoromethyl)-1,2-benzoxazol-3-amine]
≥ 50%: mortality at 300 ppm [5] | mortality at 2500 ppm [3] | mortality at 2500 ppm [4] | mortality at 300 ppm [6]

CC(Nc1noc2ncc(C(F)(F)F)cc12)c1ncnn1-c1ncccn1 (stereo not drawn) [I-3, N-[1-(2-pyrimidin-2-yl-1,2,4-triazol-3-yl)ethyl]-5-(trifluoromethyl)isoxazolo[5,4-b]pyridin-3-amine]
≥ 50%: mortality at 2500 ppm [2] | mortality at 2500 ppm [3]

CC(Nc1nn(C)c2ccc(C(F)(F)F)cc12)c1ncnn1-c1ncccn1 (stereo not drawn) [I-4, 1-methyl-N-[1-(2-pyrimidin-2-yl-1,2,4-triazol-3-yl)ethyl]-5-(trifluoromethyl)indazol-3-amine]
≥ 50%: mortality at 2500 ppm [1] | mortality at 2500 ppm [3] | mortality at 2500 ppm [4]

CC(Nc1nsc2c(Cl)cc(Cl)cc12)c1ncnn1-c1ncccn1 (stereo not drawn) [I-5, 5,7-dichloro-N-[1-(2-pyrimidin-2-yl-1,2,4-triazol-3-yl)ethyl]-1,2-benzothiazol-3-amine]
≥ 50%: mortality at 2500 ppm [1] | mortality at 300 ppm [7] | mortality at 2500 ppm [2] | mortality at 2500 ppm [3] | mortality at 2500 ppm [4]

CC(c1ncnn1-c1ncccn1)N(CC1CC1)c1nnc2c(Cl)cc(C(F)(F)F)cn12 (stereo not drawn) [I-6, 8-chloro-N-(cyclopropylmethyl)-N-[1-(2-pyrimidin-2-yl-1,2,4-triazol-3-yl)ethyl]-6-(trifluoromethyl)-[1,2,4]triazolo[4,3-a]pyridin-3-amine]
≥ 50%: mortality at 2500 ppm [2]

CC(Nc1c(C(F)(F)F)c(C(F)(F)C(F)(F)F)nn1C)c1ncnn1-c1ncccn1 (stereo not drawn) [I-7, 2-methyl-5-(1,1,2,2,2-pentafluoroethyl)-N-[1-(2-pyrimidin-2-yl-1,2,4-triazol-3-yl)ethyl]-4-(trifluoromethyl)pyrazol-3-amine]
≥ 50%: mortality at 2500 ppm [1] | mortality at 300 ppm [5] | mortality at 300 ppm [6]

CC(Nc1n[s+]([O-])c2c(Cl)cc(Cl)cc12)c1ncnn1-c1ncccn1 (stereo not drawn) [I-8, 5,7-dichloro-1-oxo-N-[1-(2-pyrimidin-2-yl-1,2,4-triazol-3-yl)ethyl]-1,2-benzothiazol-3-amine]
≥ 50%: mortality at 300 ppm [8] | mortality at 2500 ppm [2] | mortality at 2500 ppm [3] | mortality at 300 ppm [6]

CC(NC1=NS(=O)(=O)c2c(Cl)cc(Cl)cc21)c1ncnn1-c1ncccn1 (stereo not drawn) [I-9, 5,7-dichloro-1,1-dioxo-N-[1-(2-pyrimidin-2-yl-1,2,4-triazol-3-yl)ethyl]-1,2-benzothiazol-3-amine]
≥ 50%: mortality at 2500 ppm [2] | mortality at 2500 ppm [3]

CCC(Nc1noc2c(C(F)(F)F)cc(C(F)(F)F)cc12)c1ncnn1-c1ncccn1 (stereo not drawn) [I-28, N-[1-(2-pyrimidin-2-yl-1,2,4-triazol-3-yl)propyl]-5,7-bis(trifluoromethyl)-1,2-benzoxazol-3-amine]
≥ 50%: mortality at 2500 ppm [1] | mortality at 300 ppm [5] | mortality at 2500 ppm [2] | mortality at 2500 ppm [3] | mortality at 300 ppm [6]
